Assay [1] has as its system U87-luc orthotopic brain xenograft. Description: Pharmacodynamic study in U87-luc orthotopic brain xenograft model, median survival. The format is in vivo, BALB/c nude mice. The following applies: Temozolomide 3 mg/kg IP Day 0, 7, 14, 21 and 28; survival time range in brackets. An excerpt:
Pharmacodynamic study of the compound 17 of this disclosure and the combination of compound 17 of the disclosure and temozolomide in a U87-luc orthotopic brain xenograft model
Adult female BALB/c nude mice were used as test animals. A U87-luc orthotopic brain xenograft model was used to study the effect of representative compound 17 of this disclosure on the median survival of female BALB/c nude mice after intragastric administration.
Healthy adult female BALB/c nude mice, 8 mice/group, 6-8 weeks old, weighing 18-22 g, purchased from Shanghai SIPPR-BK Laboratory Animal Co., Ltd., Animal Production License No: 2008001658261; 2008001658263. • 7.2.3 Preparation of the test compounds
An appropriate amount of compound 17 was weighed, and added with 0.1% hydroxyethyl cellulose/0.5% TWEEN®80 as vehicle to 0.3125 mg/ml;
An appropriate amount of Temozolomide sample was weighed, and added with 0.1% CMC-Na+0.25% TWEEN®80 as vehicle to 0.3 mg/ml.
Adult female BALB/c nude mice were anesthetized by intraperitoneal injection of sodium pentobarbital at a dose of 80 mg/kg. To relieve pain, animals were injected subcutaneously with buprenorphine at the time points 30 minutes before operation and 6 hours after operation at a dose of 0.1 mg/kg. Animals were observed after anesthesia until all animals had awakened.
The anesthetized animals were properly fixed, the animals' head skin was sterilized with 70% ethanol, and an approximately 10 mm long incision was made on the right side of the midline from the forehead to the ear line. 3×10^5 U87-luc cells (3 μl, mixture of PBS and Matrigel at a ratio of 4:1) were inoculated at the right frontal lobe that is 2 mm away from the right side of the bregma and is 1 mm away from the front side of the coronal suture in each animal. The incision was sutured with a No. 6 suture, and sterilized with polyvinylpyrrolidone. Animals are kept warm until anabiosis. Six days after tumor cell transplantation, tumor animals were grouped by stratified randomization based on […] signal intensity values, and the average bioluminescence reached 2.812E+07 photons/sec when the groups were administered in groups. Different animal groups were administered at different doses for a total of 35 days.

Assay [2] deals with CDK4/CyclinE1 (Homo sapiens, UniProt P11802). The note with it: read-out: CDK4/CyclinE1 IC50. The protocol: (§1) Measurement of CDK kinase inhibitory activity of the compounds of this disclosure.
(§2) In vitro inhibitory effect of the compounds of the disclosure on CDK (CDK1, CDK4 and CDK6) kinase activity was tested by the following method.
(§3) 1.1 Instrument and Kit Information
(§4) 1.2 Experimental Preparation • 1.2.1 Preparation of Kinase Reaction Buffer I: The 5×Reaction Buffer A (Promega; V307A-C) provided in the kit was mixed and diluted with MILLI-Q® H2O and 0.1 M DTT (dithiothreitol) to give 4× kinase buffer, and then MILLI-Q® H2O was further added to finally formulate the solution into 1× Kinase buffer.
The final concentration was 50 μM. • b. 40 μl of kinase reaction buffer II was added into B2 to B10 of a 96-well plate, and 50 μl of the above solution was added into B1; • c. […]
(§5) 1.3 Experimental process: • 1.3.1: 2 μl of compound solutions of various concentrations were taken, added to a 384-well plate, and centrifuged 3 minutes; • 1.3.2: 4 μl of kinase solution was added to each well, centrifuged at 5000 rpm and 18° C. for 10 minutes, and shaken on a plate shaker for 10 minutes; • 1.3.3: 4 μl of mixed solution of substrate and ATP was added to each well, centrifuged at 5000 rpm and 18° C. for 10 minutes, and shaken on a plate shaker at 37° C. for 90 minutes; • 1.3.4: The 384-well plate was taken out, and allowed to stand to room temperature; • 1.3.5: 10 μl of ADP-GLO™ reagent was added to each well, centrifuged at 5000 rpm and 18° C. for 18 minutes, and shaken on a plate shaker at 25° C. for 40 minutes, and then the reaction was stopped; • 1.3.6: 20 μl of kinase detection reagent was added to each well, centrifuged at 5000 rpm and 18° C. for 10 minutes, and shaken on a plate shaker at 25° C. for 30 minutes; and • 1.3.7: M1000pro MICROPLATE READER was used to read […] values.
(§6) The inhibition rate of each compound at each concentration point was calculated by the formula as follows and curve fitting was performed by GraphPad Prism 5 software to obtain the IC50 value.

For assay [3], the target named is CDK1/CyclinA2 (Homo sapiens (Human), UniProt P06493). Put plainly: CDK kinase inhibitory activity, ADP-Glo Kinase Assay, CDK1/CyclinA2. The assay is classed as biochemical. As for the experimental part: as §1, §2, §3, §4
(§7) 1 μl of 10 mM standard substance stock solution was taken and added to 9 μl of kinase reaction buffer I and mixed well; then 90 μl of kinase reaction buffer I was added and mixed well; then 100 μl of kinase reaction buffer I was added and mixed well. The final concentration was 50 μM. • b. 40 μl of kinase reaction buffer II was added into B2 to B10 of a 96-well plate, and 50 μl of the above solution was added into B1; • c. 10 μl of solution was taken from well B1, added into B2, and mixed well; then 10 μl of the resulting solution was taken and added into B3, and dilution was carried out in sequence to B9, so as to obtain control solutions that are diluted by 5-fold sequentially. • (2) Preparation of test compound solution: • a. Test compound solutions at a certain concentration were taken, respectively, diluted with kinase reaction buffer I to a final concentration of 50 μM compound solution; • b. 40 μl of kinase reaction buffer II was added into H2 to H10 of the 96-well plate; and 50 μl of the above solution was added into H1; • c. 10 μl of solution was taken from well H1, added into H2, and mixed well; then 10 μl of the resulting solution was taken and added into H3, and dilution was carried out in sequence to H9, so as to obtain test compound solutions that are diluted by 5-fold sequentially. • 1.2.4 Preparation of a mixed solution of reaction substrate and ATP: • a. Preparation of ATP solution: • 200 μl of 0.1 mM ATP solution: 2 μl of 10 mM ATP was added to 198 μl of kinase reaction buffer I; • 300 μl of 50 μM ATP solution: 150 μl of kinase reaction buffer I was added to 150 μl of the above 0.1 mM ATP solution; • b. Preparation of 300 μl of reaction substrate solution: • 150 μl 1 μg/μl reaction substrate stock solution was added to 150 μl kinase reaction buffer I, and mixed well; • c. The above a/b solutions were mixed to obtain mixed solutions, respectively.
as §5, §6
On the technique in general: In ADP-Glo the light output rises with the ADP produced.

The target of assay [4] is Pim-1 (Homo sapiens (Human), UniProt P11309). Description: Kinase inhibitory activity on Pim-1. The format is biochemical. As for the experimental part: as §4, §7, §5, §6
For assay [5], the target named is CDK6/CyclinD3 (Homo sapiens (Human), UniProt Q00534). Put plainly: CDK kinase inhibitory activity, ADP-Glo Kinase Assay, CDK6/CyclinD3. The format is biochemical.
In assay [6] the target is CDK9/CyclinD3 (Homo sapiens (Human), UniProt P50750). Description: Kinase inhibitory activity, ADP-Glo Kinase Assay, CDK9/CyclinD3. The format is biochemical. As for the experimental part: as §3, §4, §7, §5, §6

Consider two molecules from patent publication US11091476B2, “Protein kinase inhibitors, preparation method and medical use thereof” (Gan & Lee Pharmaceuticals, priority 2015, dated 2021).

SMILES strings stand for the structures.

For the molecule `Cn1nnc2c(C(N)=O)ncn2c1=O` [Temozolomide, reference compound], the Medium survival in assay [1] was 47(38-83) days.

Consider `CC1=Nc2c(F)cc(-c3nc(Nc4ccc(N5CCNCC5)cn4)ncc3F)cc2C12CCCC2` [Example 6, 5-fluoro-4-(7′-fluoro-2′-methylspiro[cyclopentane-1,3′-indol]-5′-yl)-N-(5-(piperazin-1-yl)pyridin-2-yl)pyrimidine-2-amino], for which the IC50 in assay [2] is 80.9 nM; in assay [3] it was 152 nM; in assay [4], 15.1 nM; in assay [5] it was 6.45 nM; in assay [6] it was 0.42 nM. For the same molecule, in assay [5] (ratio of IC50s, selectivity for CDK6 over CDK1), the CDK1/CDK6 was found to be 23.59. Moreover, in assay [5] (ratio of IC50s, selectivity for CDK6 over CDK9), the CDK9/CDK6 stood at 0.06. Besides, in assay [5] (ratio of IC50s, selectivity for CDK6 over Pim-1), the Pim-1/CDK6 is 2.33.
